Laboratory results as given in US12139492B2 (Endotarget Inc., priority 2021, dated 2024).
Read-outs that look alike come from different tables or passages of the source.

Columns and labels:
Mino cells = assay: Antiproliferative effect, MTS cell viability assay, Mino cells; type: cell-based; conditions: Mino mantle cell lymphoma cells, read-out: IC50 (anti-proliferation) Mino cells
How it was run: (§1)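 MTS read-out, A490 of formazan from metabolically active cells; compound 0–10 μM (0, 0.001, 0.01, 0.1, 1, 10 μM), 72 h exposure.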

JeKo-1 cells = assay: Antiproliferative effect, MTS cell viability assay, JeKo-1 cells; type: cell-based; conditions: JeKo-1 mantle cell lymphoma cells, read-out: IC50 (anti-proliferation) JeKO-1 cells
How it was run: as §1

BTK = BTK (Homo sapiens, UniProt Q06187); assay: Degradation of BTK protein in Namalwa cells (Western blot; DC50, Dmax)
BTK, sequence (Q06187 whole entry): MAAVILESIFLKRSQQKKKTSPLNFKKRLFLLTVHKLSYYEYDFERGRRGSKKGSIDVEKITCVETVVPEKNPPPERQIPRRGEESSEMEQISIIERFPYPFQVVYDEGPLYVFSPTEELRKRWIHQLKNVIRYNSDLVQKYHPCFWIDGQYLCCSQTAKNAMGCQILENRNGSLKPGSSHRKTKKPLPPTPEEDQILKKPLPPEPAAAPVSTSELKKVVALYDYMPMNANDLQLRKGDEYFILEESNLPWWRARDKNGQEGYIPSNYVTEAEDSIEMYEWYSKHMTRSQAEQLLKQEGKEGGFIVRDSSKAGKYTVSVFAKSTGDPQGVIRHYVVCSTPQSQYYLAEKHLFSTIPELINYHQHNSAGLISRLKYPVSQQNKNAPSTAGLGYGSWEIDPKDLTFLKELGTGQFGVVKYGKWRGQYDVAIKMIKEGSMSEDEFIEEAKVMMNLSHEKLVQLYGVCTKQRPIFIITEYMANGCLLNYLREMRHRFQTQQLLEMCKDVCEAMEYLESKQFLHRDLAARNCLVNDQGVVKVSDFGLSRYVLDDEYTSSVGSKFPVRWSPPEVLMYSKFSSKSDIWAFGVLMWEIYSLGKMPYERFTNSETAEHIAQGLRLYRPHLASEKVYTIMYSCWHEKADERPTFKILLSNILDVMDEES

[1] = BTK degradation, cell line not given
[2] = read-out: DC50 (BTK degradation), concentration giving 50% reduction of BTK expression level, cell line not given
[3] = read-out: Dmax (BTK degradation)

| Compound | Dmax (BTK) | DC50 (BTK; [1]) | DC50 (BTK; [2]) | Dmax (BTK; [3]) | Dmax (BTK degradation) (BTK; cell line not given) | IC50 (Mino cells; Homo sapiens, MINO) | IC50 (JeKo-1 cells; Homo sapiens) | IC50 (Mino cells; Homo sapiens) | degradation of BTK protein (BTK; Namalwa B lymphocyte cells, various concentrations, 24 hours, Western blot) | IC50 (Mino cells) | IC50 (JeKo-1 cells) |
| --- | --- | --- | --- | --- | --- | --- | --- | --- | --- | --- | --- |
| Nc1ncnc2c1c(-c1ccc(Oc3ccccc3)cc1)nn2C1CCN(CC2CCN(CCC3CCN(c4ccc5c(c4)C(=O)N(C4CCC(=O)NC4=O)C5=O)CC3)CC2)CC1 (stereo not drawn) [Compound 201, 5-(4-(2-(4-((4-(4-amino-3-(4-phenoxyphenyl)-1H-pyrazolo[3,4-d]pyrimidin-1-yl)piperidin-1-yl)methyl)piperidin-1-yl)ethyl)piperidin-1-yl)-2-(2,6-dioxopiperidin-3-yl)isoindoline-1,3-dione] | > 90% | 10 to 50 nM |  |  |  | 1000 to 10000 nM | 1000 to 10000 nM |  |  |  |  |
| NC(=O)c1c(-c2ccc(Oc3ccccc3)cc2)nn2c1NCC[C@H]2C1CCN(CC2CCN(C(=O)N3CCN(Cc4ccc5c(c4)CN(C4CCC(=O)NC4=O)C5=O)CC3)CC2)CC1 (stereo partly drawn) [Compound 400, (7S)-7-(1-((1-(4-((2-(2,6-dioxopiperidin-3-yl)-1-oxoisoindolin-5-yl)methyl)piperazine-1-carbonyl)piperidin-4-yl)methyl)piperidin-4-yl)-2-(4-phenoxyphenyl)-4,5,6,7-tetrahydropyrazolo[1,5-a]pyrimidine-3-carboxamide] |  |  | > 50 nM | > 50% |  | > 10000 nM | > 10000 nM |  |  |  |  |
| Nc1ncnc2c1c(-c1ccc(Oc3ccccc3)cc1)nn2C1CCN(C2CCN(CCN3CCN(c4ccc5c(c4)C(=O)N(C4CCC(=O)NC4=O)C5=O)CC3)CC2)CC1 (stereo not drawn) [Compound 217, 5-(4-(2-(4-(4-amino-3-(4-phenoxyphenyl)-1H-pyrazolo[3,4-d]pyrimidin-1-yl)-[1,4′-bipiperidin]-1′-yl)ethyl)piperazin-1-yl)-2-(2,6-dioxopiperidin-3-yl)isoindoline-1,3-dione] | > 75% | 10 to 50 nM |  |  |  | 1000 to 10000 nM | < 1000 nM |  |  |  |  |
| Nc1ncnc2c1c(-c1ccc(Oc3ccccc3)cc1)nn2C1CCN(CC2CCN(CC3CCN(c4ccc5c(c4)CN(C4CCC(=O)NC4=O)C5=O)CC3)C2)CC1 (stereo not drawn) [Compound 446, 3-(5-(4-((3-((4-(4-amino-3-(4-phenoxyphenyl)-1H-pyrazolo(3,4-d)pyrimidin-1-yl)piperidin-1-yl)methyl)pyrrolidin-1-yl)methyl)piperidin-1-yl)-1-oxoisoindolin-2-yl)piperidine-2,6-dione] |  |  | 10 to 50 nM | > 90% |  |  | 1000 to 10000 nM | 1000 to 10000 nM | dose-dependent degradation |  |  |
| Nc1ncnc2c1c(-c1ccc(Oc3ccccc3)cc1)nn2C1CCC(C(=O)N2CC(N3CCN(c4ccc5c(c4)C(=O)N(C4CCC(=O)NC4=O)C5=O)CC3)C2)CC1 (stereo not drawn) [Compound 511, 5-(4-(1-(4-(4-amino-3-(4-phenoxyphenyl)-1H-pyrazolo[3,4-d]pyrimidin-1-yl)cyclohexane-1-carbonyl)-152-zetidine-3-yl)piperazin-1-yl)-2-(2,6-dioxopiperidin-3-yl)isoindoline-1,3-dione] |  |  | < 10 nM |  | A (A >90%) |  |  |  |  | < 1000 nM | < 1000 nM |
| Nc1ncnc2c1c(-c1ccc(Oc3ccccc3)cc1)nn2[C@@H]1CCCN(CCNC(=O)NC2CCC(=O)NC2=O)C1 (stereo partly drawn) [Compound 519, 1-(2-((R)-3-(4-amino-3-(4-phenoxyphenyl)-1H-pyrazolo[3,4-d]pyrimidin-1-yl)piperidin-1-yl)ethyl)-3-(2,6-dioxopiperidin-3-yl)urea] |  |  | 10 to 50 nM | > 75% |  | > 10000 nM | 1000 to 10000 nM |  |  |  |  |
| NC(=O)c1c(-c2ccc(Oc3ccccc3)cc2)nn2c1NCCC2C1CCN(C2CCN(C(=O)N3CCC(C4CCN(c5ccc6c(c5)CN(C5CCC(=O)NC5=O)C6=O)CC4)CC3)CC2)CC1 (stereo not drawn) [Compound 344, 7-(1′-(1′-(2-(2,6-dioxopiperidin-3-yl)-1-oxoisoindolin-5-yl)-[4,4′-bipiperidine]-1-carbonyl)-[1,4′-bipiperidin]-4-yl)-2-(4-phenoxyphenyl)-4,5,6,7-tetrahydropyrazolo[1,5-a]pyrimidine-3-carboxamide] | > 90% | < 10 nM |  |  |  | 1000 to 10000 nM | < 1000 nM |  |  |  |  |
| Nc1ncnc2c1c(-c1ccc(Oc3ccccc3)cc1)nn2C1CCN(C2CCN(C(=O)N3CCC(CCCN4CCC(c5ccc6c(c5)CN(C5CCC(=O)NC5=O)C6=O)CC4)CC3)CC2)CC1 (stereo not drawn) [Compound 268, 3-(5-(1-(3-(1-(4-(4-amino-3-(4-phenoxyphenyl)-1H-pyrazolo[3,4-d]pyrimidin-1-yl)-[1,4′-bipiperidine]-1′-carbonyl)piperidin-4-yl)propyl)piperidin-4-yl)-1-oxoisoindolin-2-yl)piperidine-2,6-dione] | > 90% | 10 to 50 nM |  |  |  | < 1000 nM | 1000 to 10000 nM |  |  |  |  |
| Nc1ncnc2c1c(-c1ccc(Oc3ccccc3)cc1)nn2[C@@H]1CCCN(C(=O)N2CC(N3CCN(c4ccc5c(c4)CN([C@@H]4CCC(=O)NC4=O)C5=O)CC3)C2)C1 [Compound 492, (R)-3-(5-(4-(1-((R)-3-(4-amino-3-(4-phenoxyphenyl)-1H-pyrazolo[3,4-d]pyrimidin-1-yl)piperidine-1-carbonyl)azetidin-3-yl)piperazin-1-yl)-1-oxoisoindolin-2-yl)piperidine-2,6-dione] |  |  | < 10 nM | > 90% |  | < 1000 nM | < 1000 nM |  |  |  |  |
| Nc1ncnc2c1c(-c1ccc(Oc3ccccc3)cc1)nn2C1CCN(CCN2CCC(N3CCN(c4ccc5c(c4)C(=O)N(C4CCC(=O)NC4=O)C5=O)CC3)CC2)CC1 (stereo not drawn) [Compound 457, 5-(4-(1-(2-(4-(4-amino-3-(4-phenoxyphenyl)-1H-pyrazolo(3,4-d)pyrimidin-1-vi)piperidin-1-yl)ethyl)piperidin-4-yl)piperazin-1-yl)-2-(2,6-dioxopiperidin-3-yl)isoindoline-1,3-dione] |  |  | < 10 nM | > 90% |  |  | < 1000 nM | < 1000 nM |  |  |  |
| Nc1ncnc2c1c(-c1ccc(Oc3ccccc3)cc1)nn2C1CCN(CC2CCN(CC3CN(c4ccc5c(c4)CN(C4CCC(=O)NC4=O)C5=O)C3)CC2)CC1 (stereo not drawn) [Compound 430, 3-(5-(3-((4-((4-(4-amino-3-(4-phenoxyphenyl)-1H-pyrazolo[3,4-d]pyrimidin-1-yl)piperidin-1-yl)methyl)piperidin-1-yl)methyl)azetidin-1-yl)-1-oxoisoindolin-2-yl)piperidine-2,6-dione] |  |  | 10 to 50 nM | > 90% |  | < 1000 nM | < 1000 nM |  |  |  |  |

Continued, in another order:

| Dmax (BTK) | DC50 (BTK; [1]) | DC50 (BTK; [2]) | Dmax (BTK; [3]) | Dmax (BTK degradation) (BTK; cell line not given) | Compound | IC50 (Mino cells; Homo sapiens, MINO) | IC50 (JeKo-1 cells; Homo sapiens) | IC50 (Mino cells; Homo sapiens) | degradation of BTK protein (BTK; Namalwa B lymphocyte cells, various concentrations, 24 hours, Western blot) | IC50 (Mino cells) | IC50 (JeKo-1 cells) |
| --- | --- | --- | --- | --- | --- | --- | --- | --- | --- | --- | --- |
|  |  | 10 to 50 nM | > 90% |  | Nc1ncnc2c1c(-c1ccc(Oc3ccccc3)cc1)nn2C1CCN(CCCN2CCC(CN3CCN(c4ccc(N5CCC(=O)NC5=O)cc4)CC3)C2)CC1 (stereo not drawn) [Compound 551, 1-(4-(4-((1-(3-(4-(4-amino-3-(4-phenoxyphenyl)-1H-pyrazolo[3,4-d]pyrimidin-1-yl)piperin-1-yl)propyl)pyrrolidin-3-yl)methyl)piperazin-1-yl)phenyl)dihydropyrimidine-2,4(1H,3H)-dione] | < 1000 nM | < 1000 nM |  |  |  |  |
| > 90% | 10 to 50 nM |  |  |  | NC(=O)c1c(-c2ccc(Oc3ccccc3)cc2)nn2c1NCC[C@H]2C1CCN(CCOCCOCCN2CCN(c3ccc4c(c3)CN(C3CCC(=O)NC3=O)C4=O)CC2)CC1 (stereo partly drawn) [Compound 272, (7S)-7-(1-(2-(2-(2-(4-(2-(2,6-dioxopiperidin-3-yl)-1-oxoisoindolin-5-yl)piperazin-1-yl)ethoxy)ethoxy)ethyl)piperidin-4-yl)-2-(4-phenoxyphenyl)-4,5,6,7-tetrahydropyrazolo[1,5-a]pyrimidine-3-carboxamide] | 1000 to 10000 nM | > 10000 nM |  |  |  |  |
| > 90% | 10 to 50 nM |  |  |  | Nc1ncnc2c1c(-c1ccc(Oc3ccccc3)cc1)nn2C1CCN(C2CCN(C(=O)N3CCN(CCCN4CCC(c5ccc6c(c5)C(=O)N(C5CCC(=O)NC5=O)C6=O)CC4)CC3)CC2)CC1 (stereo not drawn) [Compound 261, 5-(1-(3-(4-(4-(4-amino-3-(4-phenoxyphenyl)-1H-pyrazolo[3,4-d]pyrimidin-1-yl)-[1,4′-bipiperidine]-1′-carbonyl)piperazin-1-yl)propyl)piperidin-4-yl)-2-(2,6-dioxopiperidin-3-yl)isoindoline-1,3-dione] | > 10000 nM | 1000 to 10000 nM |  |  |  |  |
|  |  | > 50 nM | > 75% |  | Nc1ncnc2c1c(-c1ccc(Oc3ccccc3)cc1)nn2C1CCN(C2CCN(CC3CCN(c4ccc(N5CCC(=O)NC5=O)cc4)CC3)CC2)CC1 [Compound 568, 1-(4-(4-((4-(4-amino-3-(4-phenoxyphenyl)-1H-pyrazolo[3,4-d]pyrimidin-1-yl)-[1,4′-bipiperidin]-1′-yl)methyl)piperidin-1-yl)phenyl)dihydropyrimidine-2,4(1H,3H)-dione] | 1000 to 10000 nM | 1000 to 10000 nM |  |  |  |  |
|  |  | < 10 nM | > 90% |  | Nc1ncnc2c1c(-c1ccc(Oc3ccccc3)cc1)nn2[C@@H]1CCCN(C2CN(C(=O)N3CCC(N4CCN(c5ccc6c(c5)CN(C5CCC(=O)NC5=O)C6=O)CC4)CC3)C2)C1 (stereo partly drawn) [Compound 482, 3-(5-(4-(1-(3-((R)-3-(4-amino-3-(4-phenoxyphenyl)-1H-pyrazolo[3,4-d]pyrimidin-1-yl)piperidin-1-yl)azetidine-1-carbonyl)piperidin-4-yl)piperazin-1-yl)-1-oxoisoindolin-2-yl)piperidine-2,6-dione] | < 1000 nM | 1000 to 10000 nM |  |  |  |  |
|  |  | 10 to 50 nM | > 75% |  | Nc1ncnc2c1c(-c1ccc(Oc3ccccc3)cc1)nn2C1CCN(CCN2CCC(Sc3ccc4c(c3)CN(C3CCC(=O)NC3=O)C4=O)CC2)CC1 (stereo not drawn) [Compound 472, 3-(5-((1-(2-(4-(4-amino-3-(4-phenoxyphenyl)-1H-pyrazolo[3,4-d]pyrimidin-1-yl)piperidin-1-yl)ethyl)piperidin-4-yl)thio)-1-oxoisoindolin-2-yl)piperidine-2,6-dione] | 1000 to 10000 nM | 1000 to 10000 nM |  |  |  |  |
